According to PubChem BioAssay AID179 (DTP/NCI, 2004):
Active and inactive are the calls of the source.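 How the source made its calls: active means compounds giving half or more protection of infected cells from virus-caused growth loss, again on retest; inactive means the rest.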 Where a SMILES comes first, the peptide text is derived from it. The star is where a group is joined. Cbz = O=C(OCc1ccccc1)*; Boc = CC(C)(C)OC(=O)*; OSu = O=C1CCC(=O)N1O*; Bn = c1ccc(C*)cc1

Test system: CEM cells HIV-1 protection, formazan growth assay
Experiment: NCI AIDS Antiviral Assay
Conditions: for IC50: measured here: growth of uninfected CEM cells
Method in brief: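 Human CEM cells, uninfected and HIV-1-infected, received five drug concentrations, and growth was read by soluble formazan assay. Compounds giving at least 50% protection were retested; reproducible 100% protection defined confirmed active.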

| SMILES | EC50 [µM] | IC50 [µM] | outcome |
| --- | --- | --- | --- |
| Cc1ccc(S(=O)(=O)OCC2CC[C@]3(C)C4CCC5(C)C(CCC5[C@H](C)CCC(=O)O)[C@@H]4CC[C@@H]3C2)cc1 (some centres not stated) | > 4.9 | > 4.9 |  |
| O=c1oc2cc(O)ccc2c2[nH]c3cc(O)ccc3c12 | > 97.7 | 17 |  |
| Clc1ccc(-c2nnc(C34CC5CC(CC(C5)C3)C4)o2)cc1 | > 200 | > 200 |  |
| O=[N+]([O-])c1ccccc1P1(=O)OCCO1 | > 200 | > 200 |  |
| CC(=O)c1ccc(NC(=O)C(=O)C(C(=O)/C=C/c2ccccc2)C2OC(=O)c3ccccc32)cc1 (configuration not stated) | > 282 | 148 |  |
| CCOC(=O)/C(CCCC#N)=N/O | > 200 | > 200 |  |
| O=C1NC(=O)C(=Cc2ccc(-c3ccccc3)cc2)C(=O)N1 | > 24.5 | > 24.5 |  |
| COc1cc(OC)c(Oc2cccc(OC)c2OC)c(OC)c1 | > 16.2 | > 16.2 |  |
| C[Si](C)(C)OC1(C2=CCCC2)CCCC1CC#N (configuration not stated) | > 955 | > 955 |  |
| CCCCc1c2c(nc3c1CCc1cc(C=O)c(N)nc1-3)/C(=C/c1ccccc1)CCC2 | > 4.37 | > 4.37 |  |
| O=c1ccc2cc3ccoc3c(OCCCCCCCCCCCCOc3c4occc4cc4ccc(=O)oc34)c2o1 | > 38.9 | > 38.9 |  |
| O=C(CC1C(=O)Nc2ccccc2S1=O)Nc1cc(Cl)ccc1Cl (configuration not stated) | > 3.8 | > 3.8 |  |
| CO/C=C/CCCN(CC#N)Cc1ccccc1 | > 27.5 | > 27.5 |  |
| CCOC(=O)C(=O)NCCCN1CCOCC1 | > 1020 | > 1020 |  |
| OCc1nnn(-c2ccccc2)c1CO | > 200 | > 200 |  |
| COC1OC(OC)C2C(c3c(C)cc(C)cc3C)=NOC12 (configuration not stated) | > 234 | > 234 |  |
| CC(C)C(=O)CC(c1ccc(Br)cc1)N1N=C(C(C)C)CC1c1ccc(Br)cc1 (configuration not stated) | > 10 | > 10 |  |
| Cn1c(=O)cc(N2CCCC2)[nH]c1=O | > 200 | > 200 |  |
| O=C(Nn1c(-c2ccccc2)nc2ccccc2c1=O)c1ccc([N+](=O)[O-])cc1 | > 200 | > 200 |  |
| CS(=O)(=O)OCCN1CCC2(CC1)SSC1(CCN(CCOS(C)(=O)=O)CC1)S2 | > 200 | 28.2 |  |
| N#CC1(C2CC(=O)N(c3ccccc3)C2=O)CCCCC1=O (configuration not stated) |  |  | inactive |

| SMILES | EC50 [µM] | IC50 [µM] | outcome |
| --- | --- | --- | --- |
| Cn1nc(-c2ccccc2)c(C(=O)/C=C/c2ccc(F)cc2)c(N2CCOCC2)c1=O | > 87.1 | > 87.1 |  |
| CC(C)(C)[Si](C)(C)OCC1OC(n2cc(I)c(=O)[nH]c2=O)C(O[Si](C)(C)C(C)(C)C)C1O[Si](C)(C)C(C)(C)C (configuration not stated) | > 200 | 17.4 |  |
| CN(C)c1nc(N(C)C)nc(N2C(=O)CCC2=O)n1 | > 200 | > 200 |  |
| O=C(OCC(Cl)(Cl)Cl)N1CC[C@@H](C2CCCCC2)C1 | > 200 | 52.5 |  |
| CCN(CC)CCOC(=O)c1ccc(NC(=O)CN(CC)CC)cc1 | > 200 | > 200 |  |
| Cc1ccc2c(CC(=O)O)cc(=O)oc2c1C | > 200 | 155 |  |
| COc1cc2c3c(c1OC)-c1cc(O)ccc1C[C@H]3NCC2 |  |  | inactive |
| CC(C)(C)OC(=O)N(CCCCNC(=O)OCc1ccccc1)CCCNC(=O)OCc1ccccc1 | > 200 | 4.47 |  |
| Cc1cc2c(c(C(=O)NCC(=O)O)c1)Oc1c(cc(C)cc1C(=O)NCC(=O)O)S2 | > 200 | > 200 |  |
| Cn1c2ccccc2c(=NNc2ccc(C(=O)O)cc2)c2ccccc21 | > 200 | 13.8 |  |
| CCCCN(CCCC)CC(=O)Nc1ccc(C(=O)OCC(C)C)cc1 | > 200 | > 200 |  |
| COc1ccc(C(F)(F)F)cc1NC(=O)O/N=C(/Cl)C(C)C | > 20 | 3.72 |  |
| CCOC(=O)c1nc2ccc(C(F)(F)F)cc2nc1Nc1ccc(OC)c(OC)c1 | > 200 | > 200 |  |
| CC1c2c(cc(OC(=O)c3cccc(S(=O)(=O)F)c3)nc2OC(=O)c2cccc(S(=O)(=O)F)c2)C(=O)N1Cc1ccccc1 (configuration not stated) | > 11.2 | 1.86 |  |
| COc1ccc(C2C(C#N)=C(S)N(C3OC(CO)C(O)C(O)C3O)C(C)=C2C(C)=O)cc1 (configuration not stated) | > 200 | 89.1 |  |
| COC(=O)CNC(=O)C(CSC(=O)OCC1c2ccccc2-c2ccccc21)NC(=O)CCC(NC(=O)OCC1c2ccccc2-c2ccccc21)C(=O)OC (configuration not stated) | > 200 | 29.5 |  |
| COC(=O)[C@H]1COC(=S)N1C(=O)[C@@H](C)[C@H](O)C(C)C | > 631 | > 631 |  |
| c1csc(-c2ccsc2-c2cccs2)c1 | > 200 | 97.7 |  |
| CN(N=O)C(=O)NC(C=O)C(O)C(O)C(O)CO (configuration not stated) | > 200 | > 200 |  |
| CCOC(=O)CC1=N/C(=N/C(=N)N[N+](=O)[O-])SC1 |  |  | inactive |
| N#CC(=Nc1ccccc1N(C(=O)c1ccccc1)C(=O)c1ccccc1)c1ccccc1 | > 17 | > 17 |  |

| SMILES | EC50 [µM] | IC50 [µM] | outcome |
| --- | --- | --- | --- |
| CCOC(=O)C1=C(Nc2ccc(Cl)cc2Cl)OCC1=O |  |  | inactive |
| CCOc1nc(-c2ccccc2)cc(-c2ccc(N3CCOCC3)cc2)c1C#N | > 200 | 112 |  |
| COC(C)(C)[C@@H]1CCCN1C1=C(C)C(=O)OC1 | > 200 | > 200 |  |
| O=C1C=CC(=O)c2c1ccc1c3ccccc3n(CCCCCCCCn3c4ccccc4c4ccc5c(c43)C(=O)C=CC5=O)c21 | > 100 | 52.5 |  |
| COc1cc(/C=C2\C(=O)N(Cc3ccccc3)C(c3ccccc3)S2(=O)=O)cc(OC)c1OC (configuration not stated) | > 20 | 3.31 |  |
| O=[N+]([O-])c1cccc(S(=O)(=O)N/N=C/c2cc(I)cc([N+](=O)[O-])c2O)c1 | > 363 | 63.1 |  |
| CCOC(=O)c1ccc(-n2nc(C)cc(Cl)c2=O)cc1 | > 123 | 23.4 |  |
| CC[C@@H]1CC2CC3c4[nH]c5ccccc5c4CCN(C2)C31 (some centres not stated) |  |  | inactive |
| COc1ccc2nc3ccccc3c(NCCCN(C)C)c2c1[N+](=O)[O-] | > 200 | 0.589 |  |
| CCc1oc2ccccc2c1C(=O)c1ccc(O)cc1 | > 324 | 53.7 |  |
| CCOC(=O)C1(c2ccccc2)CCC(=O)CC1 | > 380 | > 380 |  |
| CON(C)C(=O)CCCO | > 1700 | > 1700 |  |
| COc1cc2c(cc1OC)C(=O)Cc1ccc3c(c1CNCC2)OCO3 | > 141 | > 141 |  |
| C(=C/P(c1ccccc1)c1ccccc1)/P(c1ccccc1)c1ccccc1.C(=CP(c1ccccc1)c1ccccc1)P(c1ccccc1)c1ccccc1.[Pt] | > 3.63 | 2.63 |  |
| Nc1cccc(C#Cc2cccc(C#Cc3cccc(N)n3)n2)n1 | > 200 | 75.9 |  |
| COc1cc(C(=O)C2CC3(CCC2(O)c2cc(OC)c(OC)c(OC)c2)CC(=O)Nc2ccccc2C3=O)cc(OC)c1OC (configuration not stated) | > 200 | > 200 |  |
| CC(C)(C)OC(=O)NC(Cc1ccc(OCc2ccccc2)cc1)C(=O)NC(CCCCNC(=O)OCc1ccccc1)C(=O)ON1C(=O)CCC1=O (configuration not stated) (Boc-Tyr(Bn)-Lys(Cbz)-OSu; configuration not given here) | > 200 | 36.3 |  |
| O=C(CSc1nnc(-c2ccc(Cl)cc2)s1)Nc1nccs1 | > 200 | > 200 |  |
| CCC/C(Cl)=N\OC(=O)Nc1ccc(Br)cc1 |  |  | inactive |
| CCCCCCCCCOC(=S)NC |  |  | inactive |
